Columns and labels:
Type in all cases: cell-based
[1] = system: K. pneumoniae ATCC 700603; test: microbe, parasite or virus in culture
Description: (§1) Antimicrobial testing – Microdilution
(§2) Antimicrobial testing was performed according to CLSI and EUCAST guidelines in microdilution.8-10 Therefore, all tested substances as well as controls were dissolved in water in different concentrations and serially diluted in MHB II (cation adjusted) on the 96-well plate. A logarithmic growing, overnight culture of the respective bacterial strain was used and adjusted to a McFarland corresponding to 1 × 10^8 cfu/ml. Afterwards the bacterial suspension was diluted to 1 ×10^6 cfu/ml and loaded on the 96-well polypropylene plates, resulting in a final bacterial concentration of 5 × 10^5 cfu/ml. After an incubation at 35 ± 1 °C for 18-20 hours (re-controlled after 24 hours) the MIC was determined as the lowest concentration without visible growth as described previously.11 For direct comparison of the tested substances, all results were calculated in mg/ml and mol/ml afterwards. […]
(§3) As further control substance, the glycopeptide antibiotic teicoplanin was evaluated. […] Resistance development in S. aureus was determined by passaging bacteria in increasing amounts of vancomycin, FU002 or, as control, fusidic acid. In principle, tubes with twofold dilutions of the compounds in 1 ml Muller Hinton broth were inoculated 1:100 with bacterial suspension. The tubes were then incubated for 24 h at 37 °C under shaking. After each passage, the tube with the highest compound concentration showing bacterial growth was used to inoculate the tubes of the next passage (1:100). The tube with the lowest compound concentration showing no growth was defined as the passage MIC. Passaging was stopped after 8 passages.
(§4) For the validation of possible side effects provoked by the conjugates, the cytotoxic effect of the lead candidate FU002 on human cells was assessed in a colorimetric viability assay. Different human cell types were used including kidney and liver cell lines as well as freshly isolated peripheral blood cells. Cells were seeded into 96-well microtiter plates at 2 x 10^4 cells/well and cultured overnight (18-24 h) in a […]

A. baumannii SC300007 = test: microbe, parasite or virus in culture
Description: as §1, §2, §3, §4

[2] = system: Staphylococcus aureus NCTC 10442; test: Blocking experiments with Nα,Nε-diacetyl-Lys-D-Ala-D-Ala in microdilution; conditions: at least 100-fold excess of Nα,Nε-Diacetyl-Lys-D-Ala-D-Ala, pre-incubation minimum 1 hour at room temperature
Description: as §1
Antimicrobial testing was performed according to CLSI and EUCAST guidelines in microdilution.8-10 Therefore, all tested substances as well as controls were dissolved in water in different concentrations and serially diluted in MHB II (cation adjusted) on the 96-well plate. A logarithmic growing, overnight culture of the respective bacterial strain was used and adjusted to a McFarland corresponding to 1 × 10^8 cfu/ml. Afterwards the bacterial suspension was diluted to 1 ×10^6 cfu/ml and loaded on the 96-well polypropylene plates, resulting in a final bacterial concentration of 5 × 10^5 cfu/ml. After an incubation at 35 ± 1 °C for 18-20 hours (re-controlled after 24 hours) the MIC was determined as the lowest concentration without visible growth as described previously.11 For direct comparison of the tested substances, all results were calculated in mg/ml and mol/ml afterwards.
as §3, with “For blocking experiments with NΑ,NΕ-DIACETYL-LYS-D-ALA-D-ALA the tested substances were incubated directly on the dilution plate with at least 100-fold excess of Nα,Nε-Diacetyl-Lys-D-Ala-D-Ala for a minimum of 1 hour at room temperature. Afterwards, the procedure was performed as described above. As” for “As”, “Passaging was stopped after 8 passages.” left out
For the validation of possible side effects provoked by the conjugates, the cytotoxic effect of the lead candidate FU002 on human cells was assessed in a colorimetric viability assay. […]

| Compound | MIC ([1]; K. pneumoniae ATCC 700603, median of at least triplicates on two different plates) | MIC (A. baumannii SC300007; A. baumannii SC300007, median of at least triplicates on two different plates) | effect of D-Ala-D-Ala binding motif on antibiotic activity [2] | MIC ([1]; Klebsiella pneumoniae, ATCC700603) | MIC (A. baumannii SC300007; Acinetobacter baumannii, SC300007) |
| --- | --- | --- | --- | --- | --- |
| CC(C)C[C@H](C(=O)N[C@H]1C(=O)N[C@@H](CC(N)=O)C(=O)N[C@H]2C(=O)N[C@H]3C(=O)N[C@H](C(=O)N[C@H](C(=O)O)c4cc(O)cc(O)c4-c4cc3ccc4O)[C@H](O)c3ccc(c(Cl)c3)Oc3cc2cc(c3O[C@@H]2O[C@H](CO)[C@@H](O)[C@H](O)[C@H]2O[C@H]2C[C@](C)(N)[C@H](O)[C@H](C)O2)Oc2ccc(cc2Cl)[C@H]1O)N(C)C(=O)C1CCC(CN2C(=O)CC(SC[C@H](NC(=O)[C@H](CCCNC(=N)N)NC(=O)[C@H](CCCNC(=N)N)NC(=O)[C@H](CCCNC(=N)N)NC(=O)[C@H](CCCNC(=N)N)NC(=O)[C@H](CCCNC(=N)N)NC(=O)[C@@H](N)CCCNC(=N)N)C(N)=O)C2=O)CC1 (stereo partly drawn) [FU002] | ≥ 640 µg/mL | ≥ 640 µg/mL | preserves its activity |  |  |
| CN[C@H](CC(C)C)C(=O)N[C@H]1C(=O)N[C@@H](CC(N)=O)C(=O)N[C@H]2C(=O)N[C@H]3C(=O)N[C@H](C(=O)N[C@H](C(=O)O)c4cc(O)cc(O)c4-c4cc3ccc4O)[C@H](O)c3ccc(c(Cl)c3)Oc3cc2cc(c3O[C@@H]2O[C@H](CO)[C@@H](O)[C@H](O)[C@H]2O[C@H]2C[C@](C)(N)[C@H](O)[C@H](C)O2)Oc2ccc(cc2Cl)[C@H]1O [vancomycin] |  |  | suppresses the antibiotic activity | ≥ 640 µg/mL | ≥ 640 µg/mL |

From PMC7323874, “Vancomycin Resistance Is Overcome by Conjugation of Polycationic Peptides” (Angewandte Chemie (International Ed. in English), 2020)
